Measurements: ChEMBL document CHEMBL1150977, “A quantitative analysis of kinase inhibitor selectivity” (Nat Biotechnol, 2008)

Legend:
[1] = molecular target: T1, Serine/threonine-protein kinase Nek1 (Homo sapiens, UniProt Q96PY6)
T1 sequence (Q96PY6 whole entry): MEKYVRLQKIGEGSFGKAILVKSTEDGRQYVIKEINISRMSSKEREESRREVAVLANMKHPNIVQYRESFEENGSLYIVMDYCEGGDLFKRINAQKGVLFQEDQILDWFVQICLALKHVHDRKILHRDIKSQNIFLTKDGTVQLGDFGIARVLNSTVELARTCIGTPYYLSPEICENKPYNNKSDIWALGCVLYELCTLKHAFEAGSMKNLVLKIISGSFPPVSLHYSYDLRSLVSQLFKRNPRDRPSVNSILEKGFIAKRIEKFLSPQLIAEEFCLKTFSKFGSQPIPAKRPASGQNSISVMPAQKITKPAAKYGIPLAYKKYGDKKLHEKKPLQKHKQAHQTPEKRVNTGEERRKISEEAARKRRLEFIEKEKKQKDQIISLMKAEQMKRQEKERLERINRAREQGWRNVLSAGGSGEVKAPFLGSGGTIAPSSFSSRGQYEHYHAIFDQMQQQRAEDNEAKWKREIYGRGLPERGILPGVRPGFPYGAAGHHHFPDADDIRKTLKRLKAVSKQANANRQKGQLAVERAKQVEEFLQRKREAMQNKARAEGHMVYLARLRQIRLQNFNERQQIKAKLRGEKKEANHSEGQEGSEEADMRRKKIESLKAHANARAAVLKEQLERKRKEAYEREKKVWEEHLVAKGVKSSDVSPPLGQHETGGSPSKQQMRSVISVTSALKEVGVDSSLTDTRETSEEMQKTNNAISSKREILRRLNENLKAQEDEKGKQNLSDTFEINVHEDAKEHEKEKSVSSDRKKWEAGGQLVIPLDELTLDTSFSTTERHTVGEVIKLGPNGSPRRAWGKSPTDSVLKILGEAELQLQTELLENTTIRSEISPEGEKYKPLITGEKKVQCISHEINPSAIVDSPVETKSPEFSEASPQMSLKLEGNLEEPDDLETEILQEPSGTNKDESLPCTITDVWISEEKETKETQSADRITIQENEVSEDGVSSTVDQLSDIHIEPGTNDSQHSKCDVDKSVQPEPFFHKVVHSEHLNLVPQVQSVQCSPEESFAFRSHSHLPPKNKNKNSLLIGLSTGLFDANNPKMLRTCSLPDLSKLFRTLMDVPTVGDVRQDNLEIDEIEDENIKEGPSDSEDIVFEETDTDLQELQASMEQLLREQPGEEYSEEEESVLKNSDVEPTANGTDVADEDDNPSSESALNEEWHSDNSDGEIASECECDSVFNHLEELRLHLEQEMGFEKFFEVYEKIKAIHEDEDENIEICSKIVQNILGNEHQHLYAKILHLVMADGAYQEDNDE

[2] = molecular target: Serine/threonine-protein kinase PAK 6 (Homo sapiens, UniProt Q9NQU5)
[3] = molecular target: Ribosomal protein S6 kinase alpha-5 (Homo sapiens, UniProt O75582)
[4] = molecular target: T2, Dual specificity protein kinase TTK (Homo sapiens, UniProt P33981)
T2 sequence (P33981 whole entry): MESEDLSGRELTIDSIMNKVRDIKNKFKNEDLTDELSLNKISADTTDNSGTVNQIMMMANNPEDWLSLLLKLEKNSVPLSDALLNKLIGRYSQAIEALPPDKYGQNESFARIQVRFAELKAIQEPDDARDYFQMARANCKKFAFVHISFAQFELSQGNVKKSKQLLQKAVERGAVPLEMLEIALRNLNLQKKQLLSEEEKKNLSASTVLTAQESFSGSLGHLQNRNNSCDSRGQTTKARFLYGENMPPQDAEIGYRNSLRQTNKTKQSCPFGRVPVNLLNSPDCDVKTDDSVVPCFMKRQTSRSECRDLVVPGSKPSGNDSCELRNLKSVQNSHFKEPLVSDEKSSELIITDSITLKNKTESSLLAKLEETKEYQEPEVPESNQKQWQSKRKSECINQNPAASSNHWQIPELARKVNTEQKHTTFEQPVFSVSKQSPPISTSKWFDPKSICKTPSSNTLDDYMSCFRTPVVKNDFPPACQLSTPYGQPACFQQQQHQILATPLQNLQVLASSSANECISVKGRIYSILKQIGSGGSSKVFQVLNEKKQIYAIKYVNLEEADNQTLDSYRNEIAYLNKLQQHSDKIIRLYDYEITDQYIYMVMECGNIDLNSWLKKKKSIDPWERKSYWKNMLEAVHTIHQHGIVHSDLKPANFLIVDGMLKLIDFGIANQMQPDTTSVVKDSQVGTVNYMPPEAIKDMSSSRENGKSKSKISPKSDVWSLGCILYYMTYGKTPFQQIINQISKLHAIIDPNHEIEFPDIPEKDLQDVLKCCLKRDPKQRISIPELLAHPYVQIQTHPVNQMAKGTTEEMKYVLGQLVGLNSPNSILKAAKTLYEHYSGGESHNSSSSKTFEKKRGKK

[5] = molecular target: Citron Rho-interacting kinase (Homo sapiens, UniProt O14578)
[6] = molecular target: T3, Serine/threonine-protein kinase Nek2 (Homo sapiens, UniProt P51955)
T3 sequence (P51955 whole entry): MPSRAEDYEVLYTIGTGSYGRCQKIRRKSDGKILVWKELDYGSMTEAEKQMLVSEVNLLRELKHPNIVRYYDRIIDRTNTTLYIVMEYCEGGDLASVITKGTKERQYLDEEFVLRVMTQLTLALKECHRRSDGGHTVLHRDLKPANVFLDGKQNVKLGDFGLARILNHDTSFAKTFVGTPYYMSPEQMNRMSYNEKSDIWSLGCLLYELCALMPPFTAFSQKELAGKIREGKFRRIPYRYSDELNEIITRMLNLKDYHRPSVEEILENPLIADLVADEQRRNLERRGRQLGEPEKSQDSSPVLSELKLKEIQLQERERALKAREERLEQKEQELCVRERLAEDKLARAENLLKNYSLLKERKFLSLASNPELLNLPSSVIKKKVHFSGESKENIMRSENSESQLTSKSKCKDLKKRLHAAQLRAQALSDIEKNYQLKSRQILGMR

[7] = molecular target: 5'-AMP-activated protein kinase catalytic subunit alpha-1 (Homo sapiens, UniProt Q13131)
[8] = molecular target: Mast/stem cell growth factor receptor Kit (Homo sapiens, UniProt P10721)
[9] = molecular target: Tyrosine-protein kinase Lck (Homo sapiens, UniProt P06239)
Sequence of Tyrosine-protein kinase Lck (P06239 whole entry): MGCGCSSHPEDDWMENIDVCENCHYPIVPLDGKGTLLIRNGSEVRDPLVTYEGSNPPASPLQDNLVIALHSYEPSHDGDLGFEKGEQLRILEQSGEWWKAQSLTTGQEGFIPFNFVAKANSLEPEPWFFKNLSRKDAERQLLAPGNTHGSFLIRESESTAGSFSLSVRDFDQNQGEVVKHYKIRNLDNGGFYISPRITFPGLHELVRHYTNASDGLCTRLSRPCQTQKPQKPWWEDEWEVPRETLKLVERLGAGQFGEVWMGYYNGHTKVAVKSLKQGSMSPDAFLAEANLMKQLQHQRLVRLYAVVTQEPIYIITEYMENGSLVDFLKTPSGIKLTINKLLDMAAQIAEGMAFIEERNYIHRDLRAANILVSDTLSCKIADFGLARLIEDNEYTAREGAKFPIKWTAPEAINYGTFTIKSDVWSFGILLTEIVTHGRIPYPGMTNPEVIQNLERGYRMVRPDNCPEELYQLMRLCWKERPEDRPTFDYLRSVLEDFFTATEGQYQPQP

Sequence of Ribosomal protein S6 kinase alpha-5 (O75582 whole entry): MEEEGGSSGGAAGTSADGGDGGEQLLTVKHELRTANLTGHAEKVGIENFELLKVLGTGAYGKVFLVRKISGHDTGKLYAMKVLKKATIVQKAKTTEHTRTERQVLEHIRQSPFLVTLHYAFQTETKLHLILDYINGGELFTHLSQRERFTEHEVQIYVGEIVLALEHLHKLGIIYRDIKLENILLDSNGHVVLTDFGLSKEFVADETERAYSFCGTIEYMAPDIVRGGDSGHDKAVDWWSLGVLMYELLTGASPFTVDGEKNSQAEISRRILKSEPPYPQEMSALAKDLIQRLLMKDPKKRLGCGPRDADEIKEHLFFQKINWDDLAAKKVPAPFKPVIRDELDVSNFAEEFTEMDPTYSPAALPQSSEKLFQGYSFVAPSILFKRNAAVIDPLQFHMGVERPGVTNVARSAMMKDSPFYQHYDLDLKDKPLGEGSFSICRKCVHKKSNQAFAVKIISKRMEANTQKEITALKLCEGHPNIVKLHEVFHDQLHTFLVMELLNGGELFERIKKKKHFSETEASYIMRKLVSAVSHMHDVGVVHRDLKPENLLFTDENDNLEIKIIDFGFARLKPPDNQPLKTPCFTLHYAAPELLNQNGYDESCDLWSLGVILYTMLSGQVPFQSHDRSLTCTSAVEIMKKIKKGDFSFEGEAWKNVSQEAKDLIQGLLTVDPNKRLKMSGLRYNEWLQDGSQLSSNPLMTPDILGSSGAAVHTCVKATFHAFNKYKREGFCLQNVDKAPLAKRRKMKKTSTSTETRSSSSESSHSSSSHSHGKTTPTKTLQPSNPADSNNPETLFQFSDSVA
Sequence of Mast/stem cell growth factor receptor Kit (P10721 whole entry): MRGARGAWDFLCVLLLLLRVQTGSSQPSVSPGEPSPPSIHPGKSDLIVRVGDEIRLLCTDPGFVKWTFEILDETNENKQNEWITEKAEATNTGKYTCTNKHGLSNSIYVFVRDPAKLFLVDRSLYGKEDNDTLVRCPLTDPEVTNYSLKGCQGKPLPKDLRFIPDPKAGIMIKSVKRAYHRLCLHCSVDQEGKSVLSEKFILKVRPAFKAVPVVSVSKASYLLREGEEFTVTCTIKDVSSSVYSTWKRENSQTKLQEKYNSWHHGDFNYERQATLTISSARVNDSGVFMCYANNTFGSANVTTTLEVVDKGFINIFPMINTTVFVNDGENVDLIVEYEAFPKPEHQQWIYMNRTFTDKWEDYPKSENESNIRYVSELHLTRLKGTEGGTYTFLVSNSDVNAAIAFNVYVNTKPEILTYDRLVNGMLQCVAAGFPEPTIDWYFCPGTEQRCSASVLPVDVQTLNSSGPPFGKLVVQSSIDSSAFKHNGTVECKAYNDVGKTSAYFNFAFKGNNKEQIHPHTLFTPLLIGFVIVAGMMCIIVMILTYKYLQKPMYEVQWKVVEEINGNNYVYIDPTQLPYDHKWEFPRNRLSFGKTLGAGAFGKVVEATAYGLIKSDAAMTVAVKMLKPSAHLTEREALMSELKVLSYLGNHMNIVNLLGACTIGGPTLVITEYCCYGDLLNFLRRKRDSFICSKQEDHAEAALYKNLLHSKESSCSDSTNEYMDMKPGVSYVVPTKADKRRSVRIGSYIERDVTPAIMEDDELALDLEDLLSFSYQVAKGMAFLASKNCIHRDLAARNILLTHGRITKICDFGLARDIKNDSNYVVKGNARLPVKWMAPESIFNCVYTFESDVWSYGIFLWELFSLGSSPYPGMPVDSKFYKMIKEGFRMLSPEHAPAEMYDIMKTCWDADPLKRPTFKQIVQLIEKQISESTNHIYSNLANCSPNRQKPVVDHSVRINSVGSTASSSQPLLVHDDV
Sequence of 5'-AMP-activated protein kinase catalytic subunit alpha-1 (Q13131 whole entry): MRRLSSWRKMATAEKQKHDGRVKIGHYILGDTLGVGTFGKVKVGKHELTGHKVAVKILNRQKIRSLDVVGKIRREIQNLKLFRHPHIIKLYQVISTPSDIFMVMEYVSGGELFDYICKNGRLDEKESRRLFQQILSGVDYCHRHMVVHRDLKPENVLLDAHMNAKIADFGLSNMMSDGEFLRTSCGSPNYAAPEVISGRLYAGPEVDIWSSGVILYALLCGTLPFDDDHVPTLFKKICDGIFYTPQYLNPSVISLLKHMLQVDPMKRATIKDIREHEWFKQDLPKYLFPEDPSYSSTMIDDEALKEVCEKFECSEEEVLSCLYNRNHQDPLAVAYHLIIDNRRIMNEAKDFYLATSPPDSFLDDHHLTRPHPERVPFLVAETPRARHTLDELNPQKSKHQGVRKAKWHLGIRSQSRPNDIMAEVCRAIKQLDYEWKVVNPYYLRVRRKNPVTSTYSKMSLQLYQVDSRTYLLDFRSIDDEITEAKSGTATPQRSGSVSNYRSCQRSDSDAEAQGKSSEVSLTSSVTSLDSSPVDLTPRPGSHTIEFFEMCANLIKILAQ
Sequence of Citron Rho-interacting kinase (O14578 whole entry): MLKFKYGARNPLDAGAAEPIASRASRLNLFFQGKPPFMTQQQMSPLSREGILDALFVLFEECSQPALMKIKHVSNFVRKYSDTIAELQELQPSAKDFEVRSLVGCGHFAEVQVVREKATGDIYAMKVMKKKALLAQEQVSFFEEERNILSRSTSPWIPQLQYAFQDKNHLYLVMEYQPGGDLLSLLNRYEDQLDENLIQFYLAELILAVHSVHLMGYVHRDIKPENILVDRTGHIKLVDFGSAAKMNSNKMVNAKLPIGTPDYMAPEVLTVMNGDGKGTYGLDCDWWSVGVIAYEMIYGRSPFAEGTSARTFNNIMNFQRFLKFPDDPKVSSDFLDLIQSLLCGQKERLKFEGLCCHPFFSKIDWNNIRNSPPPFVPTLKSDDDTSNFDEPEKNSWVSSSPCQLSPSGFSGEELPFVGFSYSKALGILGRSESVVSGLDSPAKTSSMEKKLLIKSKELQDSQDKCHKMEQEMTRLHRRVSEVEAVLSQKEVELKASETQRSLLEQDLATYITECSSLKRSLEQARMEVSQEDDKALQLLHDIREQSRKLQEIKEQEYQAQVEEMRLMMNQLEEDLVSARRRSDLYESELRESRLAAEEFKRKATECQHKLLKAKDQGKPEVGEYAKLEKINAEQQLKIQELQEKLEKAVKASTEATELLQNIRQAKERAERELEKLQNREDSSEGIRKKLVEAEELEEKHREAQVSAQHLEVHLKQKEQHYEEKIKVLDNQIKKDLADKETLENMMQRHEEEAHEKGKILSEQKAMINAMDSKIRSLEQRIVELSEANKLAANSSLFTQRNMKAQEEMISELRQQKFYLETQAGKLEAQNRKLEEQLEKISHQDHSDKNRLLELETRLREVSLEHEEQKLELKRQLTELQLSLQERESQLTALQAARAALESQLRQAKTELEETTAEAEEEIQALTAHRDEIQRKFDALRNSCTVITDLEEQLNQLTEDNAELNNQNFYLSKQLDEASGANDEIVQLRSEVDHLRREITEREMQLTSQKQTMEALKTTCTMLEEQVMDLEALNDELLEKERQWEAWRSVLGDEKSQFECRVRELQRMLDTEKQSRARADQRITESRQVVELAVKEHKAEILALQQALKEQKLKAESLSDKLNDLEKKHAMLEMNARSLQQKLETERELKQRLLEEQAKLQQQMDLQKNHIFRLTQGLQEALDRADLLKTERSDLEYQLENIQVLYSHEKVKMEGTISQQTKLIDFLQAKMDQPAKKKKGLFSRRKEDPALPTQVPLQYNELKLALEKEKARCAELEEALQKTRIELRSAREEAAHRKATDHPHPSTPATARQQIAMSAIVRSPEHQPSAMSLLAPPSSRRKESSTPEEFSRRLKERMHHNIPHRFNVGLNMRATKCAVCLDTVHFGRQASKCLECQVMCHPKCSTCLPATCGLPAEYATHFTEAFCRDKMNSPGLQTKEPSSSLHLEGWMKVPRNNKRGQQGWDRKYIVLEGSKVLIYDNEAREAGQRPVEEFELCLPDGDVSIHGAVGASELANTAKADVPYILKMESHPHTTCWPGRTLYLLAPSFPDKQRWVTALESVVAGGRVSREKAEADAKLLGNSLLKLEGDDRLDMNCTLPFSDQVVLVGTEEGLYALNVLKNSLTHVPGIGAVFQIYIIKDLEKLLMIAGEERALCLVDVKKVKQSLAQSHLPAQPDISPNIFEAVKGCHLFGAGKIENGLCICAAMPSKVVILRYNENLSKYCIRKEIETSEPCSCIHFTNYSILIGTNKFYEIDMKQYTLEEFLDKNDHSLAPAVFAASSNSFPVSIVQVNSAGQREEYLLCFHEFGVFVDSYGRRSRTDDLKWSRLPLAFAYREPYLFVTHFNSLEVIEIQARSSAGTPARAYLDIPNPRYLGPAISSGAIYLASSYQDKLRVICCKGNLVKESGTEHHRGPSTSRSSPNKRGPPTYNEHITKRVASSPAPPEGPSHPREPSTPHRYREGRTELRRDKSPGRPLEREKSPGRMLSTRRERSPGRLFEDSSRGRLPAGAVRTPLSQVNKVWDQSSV

Structure (SMILES) | Kd [1] [µM] | Kd [2] [µM] | Kd [3] [µM] | Kd [4] [µM] | Kd [5] [µM] | Kd [6] [µM] | Kd [7] [µM] | Kd [8] [µM] | Kd [9] [µM]
COCC(=O)NC/C=C/c1ccc2ncnc(Nc3ccc(Oc4ccc(C)nc4)c(C)c3)c2c1 [CP-724714] | > 10 | > 10 | > 10 | > 10 | > 10 | > 10 | > 10 | > 10 | > 10
NC(=O)c1ccc(-c2nc(-c3ccc4c(c3)OCO4)c(-c3ccccn3)[nH]2)cc1 [SB-431542] | > 10 | > 10 | > 10 | > 10 | > 10 | > 10 | > 10 | > 10 | > 10
Nc1nc(Nc2ccc(S(N)(=O)=O)cc2)nn1C(=O)c1c(F)cccc1F [JNJ-7706621] | > 10 | – | > 10 | – | > 10 | – | – | – | –
CCOc1cc2ncc(C#N)c(Nc3ccc(F)c(Cl)c3)c2cc1NC(=O)/C=C/CN(C)C [PELITINIB] | – | > 10 | > 10 | > 10 | 0.31 | – | > 10 | > 10 | –
CCN1CCN(Cc2ccc(NC(=O)Nc3ccc(Oc4cc(NC)ncn4)cc3)cc2C(F)(F)F)CC1 [AST-487] | > 10 | – | – | – | – | – | – | – | –
Oc1ccc(-c2nc(-c3ccncc3)c(-c3ccc(F)cc3)[nH]2)cc1 [SB-202190] | > 10 | > 10 | > 10 | 4.5 | 0.51 | > 10 | > 10 | > 10 | > 10
